The test system of series [1] is human liver cancer cells (HepG2). The series can be described thus: Tumor weight and tumor inhibition in nude mice bearing HepG2. The settings on record: for Intratumoral injection Tumor inhibition rate / Intratumoral injection Tumor weight / Tumor inhibition rate of intraperitoneal injection: 5th day after last dose. It is filed as in vivo. As for the experimental part: (§1) One of the core characteristics of tumors is heterogeneity. […] The corresponding negative control was normal saline.
(§2) They were injected intraperitoneally and intratumorally.
The negative control group was given normal saline. The compositions of the study drug are as shown in the table below: 4 types and concentrations of amino acid based nutrient single drugs (X % amino acid based nutrients), 18 types and concentrations of ineffective absorption drugs (Y % ineffective absorption drugs), 24 compositions comprising various types and concentrations of amino acid based nutrients and ineffectively absorption drugs (X % amino acid based nutrients/Y % ineffectively absorption drugs).
The negative control was normal saline. The compositions of 16 study drugs, as shown in the table below, comprise: a 5-fluorouracil single drug of 4 varying concentrations (X % 5-fluorouracil), and an amino acid based nutrient with 5 varying concentrations (Y % amino acid based nutrient), 7 compositions consisting of 5-fluorouracil of varying concentrations and an amino acid based nutrient of varying concentrations (X % 5-fluorouracil/Y % amino acid based nutrient). […] The dose at each time was: 5-fluorouracil 50 mg/kg, glutathione ≤1 g/kg, and an injection volume was ≤150 μl/mouse.
The negative control was normal saline, the positive control was 1% 5-fluorouracil, and the study drug was 1% methylene blue/10% amino acid based nutrient composition (the type of the amino acid based nutrient is variable). The amino acid based nutrients in the compositions used in study groups 1-13 were: arginine, glycine, cysteine hydrochloride, valine, threonine, proline, histidine hydrochloride, phenylalanine, lysine, leucine, alanine, glutathione, serine, and the study drug used in the study group 14 was 1% methylene blue/5% arginine/5% glycine.

The subject of the next series is HepG2. The series can be described thus: Intratumoral tissue destruction, histological observation of HepG2 tumors. The settings on record: Table 7; intratumoral injection, once, ≤130 μl/mouse; next day; scale 0 = blank control, 5 = 5% acetic acid.
A short description of series [2]: Saturated concentration of 5-fluorouracil. The settings on record: aqueous solution. It is filed as physicochemical.
The subject of series [3] is human stomach cancer cells (BGC823). The series can be described thus: Tumor inhibition in nude mice bearing human stomach cancer cells (BGC823). The settings on record: Example 2; intratumoral 100 μl/mouse every 3 days x3; next day; avg tumor volume 85 mm^3.
Method: (§3) The tumor growth inhibition rate (abbreviated as tumor inhibition rate in the present invention) is calculated through the following equation:
(§4) wherein TW is an average tumor weight of a study group; CW is an average tumor weight of a negative control group.
(§5) In the following experiments, the nude mice bearing human tumor cells and successfully modeled were randomly divided into 1 negative control group and 4 study groups (groups A, B, C, and D). The corresponding negative control was normal saline. […] Each group was injected intratumorally, once every 3 days, for a total of 3 times, each time with 100 μl/mouse. On the next day after the administration of drugs was ended, the animals were euthanized, the tumor weight was measured after anatomy, and the tumor inhibition rate was calculated from the respective negative control group.
In this research experiment, successfully modeled nude mice bearing human stomach cancer cells (BGC823) (with an average tumor volume of 85 mm^3) were randomly divided into a negative control group and 4 study groups (groups A, B, C, and D).
For series [4], the system named is pancreatic cancer cells PANC-1. The series can be described thus: Tumor inhibition in nude mice bearing pancreatic cancer cells PANC-1. In kind it is in vivo. The settings on record: for Tumor inhibition rate of intraperitoneal injection / Tumor inhibition rate of intratumoral injection: Table 3, avg tumor volume 105 mm^3, 100 μl/mouse every 3 days x3, next day after last dose; for Tumor inhibition rate: Table 4, avg tumor volume 136 mm^3, intratumoral every 3 days x3, ≤150 μl, next day. Here is the method: as §2
After anatomy, the tumor weight was measured and the tumor inhibition rate was calculated.

The subject of series [5] is human lung cancer cells (A549). Put plainly: Tumor inhibition in nude mice bearing human lung cancer cells (A549). The settings on record: Example 2; intratumoral 100 μl/mouse every 3 days x3; next day; avg tumor volume 83 mm^3.
Method: as §3, §4, §5
In this research experiment, successfully modeled nude mice bearing human lung cancer cells (A549) (with an average tumor volume of 83 mm^3) were randomly divided into a negative control group and 4 study groups (groups A, B, C, and D).
Series [6] concerns human ovary cancer cells (PA1). The series can be described thus: Tumor inhibition in nude mice bearing human ovary cancer cells (PA1). The settings on record: Example 2; intratumoral 100 μl/mouse every 3 days x3; next day; avg tumor volume 104 mm^3.
Method: as §3, §4
(§6) In the following experiments, the nude mice bearing human tumor cells and successfully modeled were randomly divided into 1 negative control group and 4 study groups (groups A, B, C, and D). The corresponding negative control was normal saline. The four study drugs were 20% arginine, 3% glutamic hydrochloride, 10% alanyl-glutamine, and 10% glutathione. Each group was injected intratumorally, once every 3 days, for a total of 3 times, each time with 100 μl/mouse. On the next day after the administration of drugs was ended, the animals were euthanized, the tumor weight was measured after anatomy, and the tumor inhibition rate was calculated from the respective negative control group.
(§7) In this series of experiments, successfully modeled nude mice bearing human cancer cells were randomly divided into 1 negative control group and 5 study groups (groups A, B, C, D and E). […] Each group was injected intratumorally, once every 3 days, for a total of 3 times, each time with 150 μl/mouse. On the next day after the administration was ended, the animals were euthanized, the tumor weight was measured after anatomy, and the tumor inhibition rate was calculated from the respective negative control group.
(§8) In this series of experiments, successfully modeled nude mice bearing human cancer cells were randomly divided into 1 negative control group and 6 study groups (groups A, B, C, D, E and F). […] Each group was injected intratumorally, once every 3 days, for a total of 3 times, each time with 100 μl/mouse. On the next day after the administration was ended, the animals were euthanized, the tumor weight was measured after anatomy, and the tumor inhibition rate was calculated from the respective negative control group.
(§9) In this series of experiments, successfully modeled nude mice bearing human cancer cells were randomly divided into 1 negative control group and 3 study groups. […] Each group was injected intratumorally, once every 3 days, for a total of 3 times, each time with 150 μl/mouse.
Series [7] relates to human prostate cancer cells (LNCaP/AR). Put plainly: Tumor inhibition in nude mice bearing human prostate cancer cells (LNCaP/AR). The settings on record: Example 2; intratumoral 100 μl/mouse every 3 days x3; next day; avg tumor volume 91 mm^3.
Method: as §3, §4, §6
In this research experiment, successfully modeled nude mice bearing human prostate cancer cells (LNCaP/AR) (with an average tumor volume of 91 mm^3) were randomly divided into a negative control group and 4 study groups (groups A, B, C, and D).
as §7, §8
In this series of experiments, successfully modeled nude mice bearing human cancer cells were randomly divided into 1 negative control group and 3 study groups. […] Each group was injected intratumorally, once every 3 days, for a total of 3 times, each time with 150 μl/mouse. On the fifth day after the administration was ended, the animals were euthanized, the tumor weight was measured after anatomy, and the tumor inhibition rate was calculated from the respective negative control group.
The test system of series [8] is human thyroid cancer cells (SW579). The series can be described thus: Tumor inhibition in nude mice bearing human thyroid cancer cells (SW579). The settings on record: Example 2; intratumoral 100 μl/mouse every 3 days x3; next day; avg tumor volume 103 mm^3.
Method: as §3, §4, §6, §7, §8, §9
Series [9] has as its system human breast cancer cells (MDA-MB231). The series can be described thus: Tumor inhibition in nude mice bearing human breast cancer cells (MDA-MB231). The settings on record: Example 2; intratumoral 100 μl/mouse every 3 days x3; next day; avg tumor volume 71 mm^3.
Method: as §3, §4, §6
In this research experiment, successfully modeled nude mice bearing human breast cancer cells (MDA-MB231) (with an average tumor volume of 71 mm^3) were randomly divided into a negative control group and 4 study groups (groups A, B, C, and D).
Each group was injected intratumorally, once every 3 days, for a total of 3 times, each time with 150 μl/mouse. On the next day after the administration was ended, the animals were euthanized, the tumor weight was measured after anatomy, and the tumor inhibition rate was calculated from the respective negative control group.
Each group was injected intratumorally, once every 3 days, for a total of 3 times, each time with 100 μl/mouse. On the next day after the administration was ended, the animals were euthanized, the tumor weight was measured after anatomy, and the tumor inhibition rate was calculated from the respective negative control group.
Series [10] relates to human head and neck cancer cells (Fμda). The series can be described thus: Tumor inhibition in nude mice bearing human head and neck cancer cells (Fμda). It is filed as in vivo. The settings on record: Example 2; intratumoral 100 μl/mouse every 3 days x3; next day; avg tumor volume 109 mm^3.
Source text: as §1

In series [11] the test system is human nasopharynx cancer cells (CNE1). Put plainly: Tumor inhibition in nude mice bearing human nasopharynx cancer cells (CNE1). The settings on record: Example 2; intratumoral 100 μl/mouse every 3 days x3; next day; avg tumor volume 78 mm^3.
Method: as §3, §4, §5
In this research experiment, successfully modeled nude mice bearing human nasopharynx cancer cells (CNE1) (with an average tumor volume of 78 mm^3) were randomly divided into a negative control group and 4 study groups (groups A, B, C, and D).
In series [12] the test system is pancreatic cancer cells PANC-1. The settings on record: once, 150 μl, next day, vs blank group.
Method: Both groups A and B were administered the drugs once, with 150 μl each time. The next day after the administration of drug was ended, the 3 groups of animals were euthanized, and the tumors were dissected for histological observation.
Another series deals with breast cancer 4T1 cells. Put plainly: Tumor weight and tumor inhibition in BALB/c mice bearing breast cancer 4T1 cells.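 Also: subcutaneous grafts in the right axilla, tumors excised and weighed after euthanasia, inhibition rate derived from group mean tumor weight versus the negative control group.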
The nature of series [13]: pH of the drug composition. The settings on record: Table 14; aqueous solution. It is filed as physicochemical.
The subject of another series is hyperthyroidism. The series can be described thus: Hyperthyroidism model in rats (levothyroxine). The settings on record: first experiment, 25th day after administration, RIA.
[14] abbreviates: Table 11, avg tumor volume 164 mm^3, intratumoral every 3 days x3, ≤150 μl, fifth day after last dose.
The mark [15] stands for this setting: Example 2, intratumoral 100 μl/mouse every 3 days x3, next day, avg tumor volume 81 mm^3.
Setting [16] is: Table 6, avg tumor volume 153 mm^3, ≤120 μl/mouse every 3 days x3.
Where [17] appears, read: Table 8, avg tumor volume 175 mm^3, ≤150 μl/mouse every 3 days x3.
[18] abbreviates: Table 16, avg tumor volume 169 mm^3, intratumoral every 3 days x3, ≤150 μl/mouse, 5th day.
The mark [19] stands for this setting: Table 10, avg tumor volume 336 mm^3, 150 μl/mouse every 3 days x3, 5th day after last dose.
[20] abbreviates: Table 12, avg tumor volume 317 mm^3, intratumoral 150 μl/mouse every 3 days x3, 5th day.
Where [21] appears, read: Table 14, avg tumor volume 325 mm^3, intratumoral 150 μl/mouse every 3 days x3, 5th day.
[22] abbreviates: Table 17, avg tumor volume 317 mm^3, intratumoral 150 μl/mouse every 3 days x3, fifth day.

SMILES strings stand for the structures. Like-named read-outs stand apart in the source and are kept apart here. Marks after values point to notes of the source that are not given here.

Here are results for five compounds from patent publication US20220151935A1, “USE OF AMINO ACID BASED NUTRIENTS AND PHARMACEUTICAL COMPOSITION CONTAINING THE SAME” (priority 2018, published 2022).

Method for breast cancer 4T1 cells: In the following examples, unless otherwise specified, animal tests of subcutaneous transplantation tumors were performed in accordance with test guidelines issued by a drug administration authority. […] The subcutaneous transplantation was carried out according to a conventional method for subcutaneous inoculation of tumor cells. […] Items to be observed, measured and analyzed in the experiments included general status, body weight, food intake, tumor volume, tumor weight, thymus weight, spleen weight, and the like.
as §3, §4
The effects of the co-use of drugs (including efficacy and safety) can theoretically be based on the judgment of q:
q=actual combined effect/theoretical expected effect of simple addition.
When q=1, the actual combined effect meets the theoretical expectation, showing an additive effect; when q<1, the actual combined effect is weaker than the theoretical expectation, showing an antagonistic effect; and when q>1, the actual combined effect exceeds the theoretical expectation, showing a synergic effect. Unless otherwise specified, single-use efficacy of A or B (denoted as EA and EB respectively) and the actual combined efficacy of A/B (denoted as EA+B) are both tumor inhibition rates.
In one experiment, the test animal was a BALB/c mouse, the modeling cells were breast cancer 4T1 cells, and the transplantation tumor was modeled at 1×10^6 cells/mouse under the skin of the animal's right axilla. […] The experimental groups were divided into 1 negative control group (group 0) and 13 study groups (groups 1-13). They were all injected intratumorally. […] Each group was administered once every 3 days for a total of 3 times, each time at an injection dose of 150 μl//mouse. During the administration, general state of the animals and the degree of necrosis of normal tissues around the tumor after the administration were observed. On the 5th day after the administration was ended, the animals were euthanized, and the tumor weight was measured after anatomy to the animals. The tumor inhibition rate was calculated from the negative control group of each administration mode.
In another experiment, the test animal was a BALB/c mouse, the modeling cells were breast cancer 4T1 cells, and the transplantation tumor was modeled at 1×10^6 cells/mouse under the skin of the animal's right axilla. […] Each group was administered by intratumoral injection once every 3 days for a total of 3 times, each time at an injection dose of 150 μl/mouse. On the 5th day after the administration was ended, the animals were euthanized, and the tumor weight was measured after anatomy to the animals. The tumor inhibition rate was calculated from the negative control group.
In another experiment, the test animal was BALB/c mice, the modeling cells were breast cancer 4T1 cells, and the transplantation tumor was modeled at 1×10^6 cells/mouse under the skin of the animal's right axilla. […] Each group was administered by intratumoral injection once every 3 days for a total of 3 times, each time at an injection dose of 150 μl/mouse. On the 5th day after the administration was ended, the animals were euthanized, and the tumor weight was measured after anatomy to the animals. The tumor inhibition rate was calculated from the negative control group.
In another experiment, the test animal was a BALB/c mouse, the modeling cells were breast cancer 4T1 cells, and the transplantation tumor under the skin of the animal's right axilla was modeled at 1×10^6 cells/mouse.
Method for hyperthyroidism: Taking hyperthyroidism as a model, the model was built with levothyroxine (intraperitoneal injection, with a dose of 50 μg/100 g body weight, for consecutive 10 days). […] Administration was started on the day of grouping. The negative control was a normal saline spray, and the positive control was methimazole. […] Both the negative control group and the study group were injected once every 1 days in the swollen area, with 150 μl/mouse each time, for a total of 8 times.
The observed, measured and analyzed items in the experiment included serological examination and thyroid pathological examination on the day of administration and the 16th day after the administration, in addition to the regular food intake, body weight, and general state. The serological examination employed radioimmunoassay (RIA) to determine concentrations of serum T3, T4 and thyroid-stimulating hormone (TSH). The pathological examination observed thyroid morphology, follicular morphology, epithelial cell morphology, and interlobular fibrous tissue morphology.

For the compound `CC(=O)O` [5% acetic acid, acetic acid, reference compound], the Tumor inhibition rate result in series [1] (setting [14]) is listed as “(71%)”. In addition, the Intratumoral tissue destruction with HepG2 amounted to 5.

For `O=c1[nH]cc(F)c(=O)[nH]1` [5-fluorouracil], in series [2], the “saturated concentration (Canti)” value is given as “about 1.5%”.

Consider `N[C@@H](CCC(=O)N[C@@H](CS)C(=O)NCC(=O)O)C(=O)O` [10% glutathione, Reduced glutathione], for which the Tumor inhibition rate in [3] is given as 59%; in series [1] (setting [15]), 61%; in series [1] (setting [18]), “(62%)”; in series [4] it was 57%; in series [5], 59%; in series [6], 67%. The Tumor inhibition rate in series [7] was determined as 65%; in series [8], 61%; in series [9], 64%; in series [10], 53%; in series [11] it was 61%. The “Intratumoral injection Tumor inhibition rate” value in [1] (setting [16]) is 58%; in series [1] (setting [17]) it was 59%. Also, the “Intratumoral injection Tumor weight” value in series [1] (setting [16]) is listed as 0.97 ± 0.24 g; in [1] (setting [17]) it was 1.04 ± 0.23 g. Also, the “Tumor inhibition rate of intraperitoneal injection” value in series [1] (setting [16]) is listed as 3%; in series [1] (setting [17]), 1%; in [4], 51%. For the same compound, the “Tumor inhibition rate of intratumoral injection” value in series [4] turned out to be 3%. This compound registered an Intratumoral tissue destruction in the series with HepG2 of 1. Besides, the “histological observation of the tumor” value in [12] (intraperitoneal injection) is “no obvious difference between group A and the blank group”; in series [12] (intratumoral injection) it was “obvious intratumoral tissue destruction”.

For `N=C(N)NCCC[C@H](N)C(=O)O` [20% arginine, L-arginine], the Tumor inhibition rate is given as 52% in [3]; 63% in [1] (setting [15]); “(60%)” in series [1] (setting [14]); “(61%)**” in series [1] (setting [18]); 27% in the series on breast cancer 4T1 cells (setting [20]); 28% in the series with breast cancer 4T1 cells (setting [21]). In addition, the Tumor inhibition rate is on record as 34% in the series with breast cancer 4T1 cells (setting [22]); 61% in series [4]; 53% in [5]; 56% in [6]; 55% in series [7]; 62% in series [8]. The results for the Tumor inhibition rate in series [9], in series [10] and in [11] were 55%, 56% and 63%, respectively. Besides, the figures for the “Intratumoral injection Tumor inhibition rate” value (in series [1] (setting [17]); in the series on breast cancer 4T1 cells (setting [19])) were 61% and 33%, respectively. The “Intratumoral injection Tumor weight” value is recorded as 0.99 ± 0.21 g in series [1] (setting [17]) and 0.86 ± 0.23 g with breast cancer 4T1 cells (setting [19]). Further, the “Tumor inhibition rate of intraperitoneal injection” value amounted to 5% in [1] (setting [17]) and 56% in series [4]. Further, the “Tumor weight (x ± s)” value came out at 1.72 g with breast cancer 4T1 cells (setting [20]) and 1.75 ± 0.29 g in the series with breast cancer 4T1 cells (setting [21]). Further, the Tumor weight in the series on breast cancer 4T1 cells (setting [22]) was found to be 1.03 ± 0.29 g. The “Tumor inhibition rate of intratumoral injection” value in series [4] came to 5%. Also, the “Drug pH” value in [13] is reported as 10.8.

Consider `Cn1cc[nH]c1=S` [Thiamazole, methimazole], for which the “serum T3” value in the series on hyperthyroidism (negative control 1.9±0.1, blank 0.8±0.1) worked out at 1.1±0.1. In the series on hyperthyroidism (negative control 171.2±9.3, blank 39.6±3.1), the “serum T4” value stood at 66.3±3.6.
